The values that follow come from paper PMC4103896, “Characterization and Evolutionary Implications of the Triad Asp-Xxx-Glu in Group II Phosphopantetheinyl Transferases” (PLoS ONE, 2014).

Type in all cases: biochemical
Test [1] addresses T1, Sppt (Synechocystis sp. PCC 6803, UniProt Q55185).
T1 construct: gene slr0495; full-length
The experiment in a line: in vitro phosphopantetheinylation of sch FAS ACP, HPLC. To be noted: 2 mM CoA, 200 uM sch FAS ACP, 20 uM Sppt, 1.25 mM MgCl2, pH 7.5, 25 °C, 30 min.

Test [2] has as its target T2, Sppt (Synechocystis sp. PCC 6803, UniProt Q55185, Q112E).
T2 construct: gene slr0495; full-length
The test is described as above. The note with it: 2 mM CoA, 200 uM sch FAS ACP, 20 uM Sppt, 1.25 mM MgCl2, pH 7.5, 25 °C, 30 min.

The target in a further test is T3, SchPPT (Streptomyces chattanoogensis, UniProt H9N836).
T3 construct: full-length group II (Sfp-type) PPTase; SchPPT cloned in pET28a (pHJ0024), E. coli; N-terminal His6 stated for the mutants
T3 sequence (H9N836 entry or part of it): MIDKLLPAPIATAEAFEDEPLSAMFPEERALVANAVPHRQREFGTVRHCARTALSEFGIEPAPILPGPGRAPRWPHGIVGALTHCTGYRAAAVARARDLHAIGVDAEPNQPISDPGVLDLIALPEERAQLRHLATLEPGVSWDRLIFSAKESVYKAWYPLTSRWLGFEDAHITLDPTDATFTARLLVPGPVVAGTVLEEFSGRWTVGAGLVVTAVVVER
The experiment in a line: in vitro phosphopantetheinylation of scn ACP0-2, LC-MS. The note with it: 2 mM CoA, 200 uM scn ACP0-2, 20 uM PPTase, 1.25 mM MgCl2, pH 7.5, 25 °C, 30 min.

Each structure is given as a SMILES string.

T2 sequence (Q55185 whole entry Q112E): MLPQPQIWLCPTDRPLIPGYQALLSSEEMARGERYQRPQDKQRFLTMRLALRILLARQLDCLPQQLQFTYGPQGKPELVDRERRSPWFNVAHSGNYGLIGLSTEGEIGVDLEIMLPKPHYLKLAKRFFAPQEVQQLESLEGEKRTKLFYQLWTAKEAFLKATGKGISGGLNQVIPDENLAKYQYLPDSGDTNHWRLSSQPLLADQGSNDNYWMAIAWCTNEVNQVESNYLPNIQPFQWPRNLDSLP
T1 sequence (Q55185 whole entry): as the sequence (Q55185 whole entry Q112E) above, with E112Q counted along it

As for `CC(C)(COP(=O)(O)OP(=O)(O)OC[C@H]1O[C@@H](n2cnc3c(N)ncnc32)[C@H](O)[C@@H]1OP(=O)(O)O)[C@@H](O)C(=O)NCCC(=O)NCCS` [CoA], the “in vitro phosphopantetheinylation of sch FAS ACP, HPLC” value was “After incubation of sch FAS ACP with CoA in the presence of Sppt” on Sppt [1] and “After incubation of sch FAS ACP with CoA in the presence of SpptQ112E” on Sppt [2]. For the same compound, the “in vitro phosphopantetheinylation of scn ACP0-2, LC-MS” value on SchPPT is recorded as “only wild type SchPPT but neither of the two mutants phosphopantetheinylated scn ACP0-2”.
